Measured values reported in patent US20240050513A1, “COMPOSITION FOR PREVENTING, AMELIORATING, OR TREATING DISEASE CAUSED BY PROTEIN NITRATION […] WITH TERMINAL TYROSINE AS EFFECTIVE COMPONENT” (INDUSTRY-ACADEMIC COOPERATION FOUNDATION GYEONGSANG …, priority 2021, published 2024).

Legend:
3xTG-AD mice = experiment: Cognitive function (ORT) and hippocampal ROS/RNS in Alzheimer's disease model; format: in vivo, mouse; conditions: 1xYQ diet
Description: To analyze the long-term memory capacity of animals following the peptide diet of the present invention, both the object recognition test (ORT) and object location recognition test (OLT) were conducted (FIG. 1). The tests consisted of three phases: habituation, familiarization, and test. During the habituation phase, the animals were acclimated to the testing apparatus for 10 minutes per day over two days. On the third day at the familiarization phase, the animals were allowed to explore two identical objects for 10 minutes. Subsequently, on the fourth day at the test phase, one of the objects was replaced with a novel object, and the animals were allowed to explore for 10 minutes, with result recorded during the initial 5 minutes was used as test data. The object recognition test (ORT) index was calculated using the following formula.
Discrimination index=(N−F)/(N+F) • N: Time spent for exploring new object • F: Time spent for exploring familiar object
The cognitive function of a 2-month-old mouse 3xTG-AD, which is a mouse model of modified Alzheimer's disease gene, and a 2-month-old normal C57BL/6 mouse was examined. After the examination, both were divided into two groups, and they were fed with either a normal diet (ND) or a diet supplemented with tyrosine-containing peptide (1xYQ). […]

[1] = system: azoxymethane (AOM) hyperammonemia C57BL/6 mice; experiment: Azoxymethane-induced hyperammonemia model; format: in vivo
Description: They were allowed free access to water and food. The mice were divided into four groups: (1) control group (Control), (2) hyperammonemia group administered with water (Veh+AOM), (3) hyperammonemia group administered with 100 mg/kg YQ peptide (YQ100+AOM), and (4) hyperammonemia group administered with 200 mg/kg YQ peptide (YQ200+AOM). YQ peptide was administered orally once a day for four consecutive days. On the fourth day, 2 hours after the last oral administration of YQ peptide, azoxymethane (AOM) at a dose of 100 mg/kg was intraperitoneally injected to induce hyperammonemia. To prevent dehydration 12 hours after AOM administration, 200 μl of physiological saline containing 0.5% glucose were injected into the abdominal cavity.
Ammonia is a primary metabolite of amino acids and nucleic acids, and the main enzymes involved in the conversion of ammonia into urea in urea cycle are found only in liver cells. In addition, the liver tissue is also rich in enzymes such as GS (glutamine synthetase) and SOD (superoxide dismutase), which help lower ammonia level, and catalase which removes reactive oxygen species. Therefore, a change in blood ammonia level as it travels from the liver to the brain through the bloodstream serves as an important indicator of hepatic encephalopathy. Accordingly, to measure the amount of blood ammonia, a PocketChem BA PA-4140 analyzer (Arkray, Japan), which is a single-wavelength reflectance measurement analyzer, was utilized. The analyzer measures the absorbance at 635 nm (LED) wavelength after the reaction 20 μl of blood with the test strip at room temperature for 3 minutes.
Western blot analysis was performed using an antibody against nitrotyrosine.

[2] = YQ200+AOM (200 mg/kg) vs veh+AOM, p<0.05

tyrosine-glutamine [YQ]
cognitive function (ORT) (3xTG-AD mice; dementia animal model 3xTG-AD, 2 to 8 months of age): slight improvement
ROS/RNS level in the hippocampal tissues (3xTG-AD mice; dementia animal model): decrease
expression level of nitrotyrosine in liver tissues [1, 2]: statistically significant decrease
serum ammonia concentration [1, 2]: statistically significant decrease
increase in blood ammonia caused by AOM ([1]; YQ oral once a day four days (100 or 200 mg/kg)): significantly suppressed
nitrotyrosine protein level in the liver tissue ([1]; YQ oral once a day four days, after AOM): significantly reduced
